Data on five compounds can be found in ChEMBL document CHEMBL1255490, “In vitro activities of DC-159a, a novel fluoroquinolone, against Mycobacterium species” (Antimicrob Agents Chemother, 2010).

Molecules are shown by their SMILES. Converted amounts (≈) assume the structure as drawn. Bounds are passed on as bounds.

The MIC is the lowest concentration that inhibits growth of the organism. The MIC50 is the lowest concentration that inhibits either 50% of growth or 50% of the strains tested, depending on the study. Higher therefore signals lower susceptibility. As a reminder, the MIC90 is an inhibitory concentration at the 90% level, which refers to growth in some studies and to a panel of isolates in others. Low values mean greater potency, high ones weaker potency.

The assay concerns Mycobacterium tuberculosis. In words: Antimycobacterial activity against quinolone-resistant multidrug-resistant Mycobacterium tuberculosis after 21 days by agar dilution method. Format: functional. The note with it: 504 h. For orientation: In agar dilution, organisms are placed on agar that contains the substance at set levels.

`COc1c(N2CC3(CC3)[C@](C)(N)C2)c(F)cc2c(=O)c(C(=O)O)cn([C@@H]3C[C@@H]3F)c12` yielded an MIC of 0.125 µg/mL (≈ 0.298 µM), an MIC50 of 0.125 µg/mL (≈ 0.298 µM) and an MIC90 of 0.5 µg/mL (≈ 1.19 µM).
In the case of `CO[C@H]1/C=C/O[C@@]2(C)Oc3c(C)c(O)c4c(O)c(c(/C=N/N5CCN(C)CC5)c(O)c4c3C2=O)NC(=O)/C(C)=C\C=C\[C@H](C)[C@H](O)[C@@H](C)[C@@H](O)[C@@H](C)[C@H](OC(C)=O)[C@@H]1C` [RIFAMPIN], the MIC50 amounted to 128 µg/mL (≈ 156 µM) and the MIC90 was more than 128 µg/mL.
In the same order, the values of `C[C@H]1COc2c(N3CCN(C)CC3)c(F)cc3c(=O)c(C(=O)O)cn1c23.C[C@H]1COc2c(N3CCN(C)CC3)c(F)cc3c(=O)c(C(=O)O)cn1c23.O` [LEVOFLOXACIN] are 8 µg/mL and 16 µg/mL.
On to `COc1c(N2CCNC(C)C2)c(F)cc2c(=O)c(C(=O)O)cn(C3CC3)c12` (stereo unspecified) [GATIFLOXACIN], for which the MIC50 stood at 1 µg/mL (≈ 2.66 µM) and the MIC90 is 2 µg/mL (≈ 5.33 µM).
The compound `COc1c(N2C[C@@H]3CCCN[C@@H]3C2)c(F)cc2c(=O)c(C(=O)O)cn(C3CC3)c12` [MOXIFLOXACIN] yielded an MIC50 of 2 µg/mL (≈ 4.98 µM) and an MIC90 of 4 µg/mL (≈ 9.96 µM).
